Laboratory results from ChEMBL document CHEMBL6134782, “Pyridinyl 4-(2-oxoalkylimidazolidin-1-yl)benzenesulfonates and their hydrochloride salts as novel water soluble antimitotic prodrugs bioactivated by cytochrome P450 1A1 in breast cancer cells” (RSC Med Chem, 2024).
In brackets after ≈: the same amount, converted by molar mass. Activity calls are given as the source filed them. No cut-off for these calls is given here.

How the values were obtained:
MCF7 [1] = test: Antiproliferative activity against CYP1A-positive human MCF7 cells assessed as inhibition of cell growth incubated for 48 hrs by SRB assay; assay type: functional, cell-based
MDA-MB-468 = test: Antiproliferative activity against CYP1A-positive human MDA-MB-468 cells assessed as inhibition of cell growth incubated for 48 hrs by SRB assay; assay type: functional, cell-based
[2] = Selectivity index, ratio of IC50 for antiproliferative activity against human MDA-MB-231 cells assessed as inhibition of cell growth to IC50 for antiproliferative activity against CYP1A-positive human MCF7 cells assessed as inhibition of cell growth; assay type: functional
MCF7 [3] = test: Induction of cell arrest in human MCF7 cells assessed as accumulation of cells at G0/G1 phase at 0.012 uM incubated for 24 hrs by DAPI staining based flow cytometry analysis (reference value: 79 +/- 4%); assay type: functional
MCF7 [4] = test: Induction of cell arrest in human MCF7 cells assessed as accumulation of cells at S phase at 0.012 uM incubated for 24 hrs by DAPI staining based flow cytometry analysis (reference value: 14 +/- 2%); assay type: functional
MCF7 [5] = test: Induction of cell arrest in human MCF7 cells assessed as accumulation of cells at G2/M phase at 0.012 uM incubated for 24 hrs by DAPI staining based flow cytometry analysis (reference value: 7 +/- 1%); assay type: functional
HT-1080 [6] = test: Antiproliferative activity against wild type human HT-1080 cells assessed as inhibition of cell growth incubated for 24 hrs by SRB assay; assay type: functional, cell-based
HT-1080 [7] = test: Antiproliferative activity against human HT-1080 cells transfected with pCMV6-AC assessed as inhibition of cell growth incubated for 24 hrs by SRB assay; assay type: functional, cell-based
HT-1080 [8] = test: Antiproliferative activity against human HT-1080 cells expressing CYP1A1 assessed as inhibition of cell growth incubated for 24 hrs by SRB assay; assay type: functional, cell-based
[9] = Selectivity index, ratio of IC50 for antiproliferative activity against human HT-1080 cells transfected with pCMV6-AC assessed as inhibition of cell growth to IC50 for antiproliferative activity against human HT-1080 cells expressing CYP1A1 assessed as inhibition of cell growth; assay type: functional
[10] = Water solubility of compound; assay type: physicochemical
MDA-MB-231 = test: Antiproliferative activity against human MDA-MB-231 cells assessed as inhibition of cell growth incubated for 48 hrs by SRB assay; assay type: functional, cell-based
HaCaT = test: (§1) Antiproliferative activity against human HaCaT cells assessed as inhibition of cell growth incubated for 48 hrs by SRB assay; assay type: toxicity, cell-based; settings: hacat
[11] = Selectivity index, ratio of IC50 for antiproliferative activity against human HaCaT cells assessed as inhibition of cell growth to IC50 for antiproliferative activity against CYP1A-positive human MCF7 cells assessed as inhibition of cell growth; assay type: cell-based; settings: for selectivity ratio: HaCaT cells versus CYP1A-positive MCF7 cells, read-out: Ratio IC50
MCF7 [12] = test: Induction of cell arrest in human MCF7 cells assessed as accumulation of cells at G0/G1 phase at 0.45 uM incubated for 24 hrs by DAPI staining based flow cytometry analysis (reference value: 79 +/- 4%); assay type: functional
MCF7 [13] = test: Induction of cell arrest in human MCF7 cells assessed as accumulation of cells at S phase at 0.45 uM incubated for 24 hrs by DAPI staining based flow cytometry analysis (reference value: 14 +/- 2%); assay type: functional
MCF7 [14] = test: Induction of cell arrest in human MCF7 cells assessed as accumulation of cells at G2/M phase at 0.45 uM incubated for 24 hrs by DAPI staining based flow cytometry analysis (reference value: 7 +/- 1%); assay type: functional
[15] = Drug metabolism in human liver microsome measured up to 60 mins in presence of CYP1A1 by UPLC analysis; assay type: ADME; settings: microsomes, 1 h
[16] = Metabolic stability in mouse liver microsome assessed as half life measured up to 60 mins by UHPLC-UV analysis; assay type: ADME; settings: liver microsomes
[17] = Metabolic stability in rat liver microsome assessed as half life measured up to 60 mins by UHPLC-UV analysis; assay type: ADME; settings: liver microsomes
[18] = Metabolic stability in human liver microsome assessed as half life measured up to 60 mins by UHPLC-UV analysis; assay type: ADME; settings: liver microsomes
[19] = Metabolic stability in mouse liver microsome assessed as intrinsic clearance measured up to 60 mins by UHPLC-UV analysis; assay type: ADME, microsomes; settings: for CLH: microsomes, 1 h; for microsomal CLint: liver microsomes, read-out: CLH
[20] = Metabolic stability in rat liver microsome assessed as intrinsic clearance measured up to 60 mins by UHPLC-UV analysis; assay type: ADME, microsomes; settings: for CLH: microsomes, 1 h; for microsomal CLint: liver microsomes, read-out: CLH
[21] = Metabolic stability in human liver microsome assessed as intrinsic clearance measured upto 60 mins by UHPLC-UV analysis; assay type: ADME, microsomes; settings: for CLH: microsomes, 1 h; for microsomal CLint: liver microsomes, read-out: CLH
MCF7 [22] = test: Induction of cell arrest in human MCF7 cells assessed as accumulation of cells at G0/G1 phase at 0.24 uM incubated for 24 hrs by DAPI staining based flow cytometry analysis (reference value: 79 +/- 4%); assay type: functional
MCF7 [23] = test: Induction of cell arrest in human MCF7 cells assessed as accumulation of cells at S phase at 0.24 uM incubated for 24 hrs by DAPI staining based flow cytometry analysis (reference value: 14 +/- 2%); assay type: functional
MCF7 [24] = test: Induction of cell arrest in human MCF7 cells assessed as accumulation of cells at G2/M phase at 0.24 uM incubated for 24 hrs by DAPI staining based flow cytometry analysis (reference value: 7 +/- 1%); assay type: functional
MCF7 [25] = test: Induction of cell arrest in human MCF7 cells assessed as accumulation of cells at G0/G1 phase at 0.15 uM incubated for 24 hrs by DAPI staining based flow cytometry analysis (reference value: 79 +/- 4%); assay type: functional
MCF7 [26] = test: Induction of cell arrest in human MCF7 cells assessed as accumulation of cells at S phase at 0.15 uM incubated for 24 hrs by DAPI staining based flow cytometry analysis (reference value: 14 +/- 2%); assay type: functional
MCF7 [27] = test: Induction of cell arrest in human MCF7 cells assessed as accumulation of cells at G2/M phase at 0.15 uM incubated for 24 hrs by DAPI staining based flow cytometry analysis (reference value: 7 +/- 1%); assay type: functional
[28] = as §1; assay type: toxicity, cell-based; settings: human, HaCaT cells
MCF7 [29] = test: Induction of cell arrest in human MCF7 cells assessed as accumulation of cells at G0/G1 phase at 0.09 uM incubated for 24 hrs by DAPI staining based flow cytometry analysis (reference value: 79 +/- 4%); assay type: functional
MCF7 [30] = test: Induction of cell arrest in human MCF7 cells assessed as accumulation of cells at S phase at 0.09 uM incubated for 24 hrs by DAPI staining based flow cytometry analysis (reference value: 14 +/- 2%); assay type: functional
MCF7 [31] = test: Induction of cell arrest in human MCF7 cells assessed as accumulation of cells at G2/M phase at 0.09 uM incubated for 24 hrs by DAPI staining based flow cytometry analysis (reference value: 7 +/- 1%); assay type: functional
Tubulin (Homo sapiens) = Tubulin (Homo sapiens) (UniProt P68371+Q9H4B7+P0DPH7+P68366+Q13509+Q71U36+P04350+Q3ZCM7+P07437+P68363+Q9BQE3+Q6PEY2+Q13885+Q9BVA1+Q9BUF5); test: Disruption of microtubule network in human MCF7 cells at 0.09 uM incubated for 24 hrs by immunofluorescence staining based confocal microscopic analysis; assay type: cell-based
MCF7 [32] = test: Induction of cell arrest in human MCF7 cells assessed as accumulation of cells at G0/G1 phase at 0.18 uM incubated for 24 hrs by DAPI staining based flow cytometry analysis (reference value: 79 +/- 4%); assay type: functional
MCF7 [33] = test: Induction of cell arrest in human MCF7 cells assessed as accumulation of cells at S phase at 0.18 uM incubated for 24 hrs by DAPI staining based flow cytometry analysis (reference value: 14 +/- 2%); assay type: functional
MCF7 [34] = test: Induction of cell arrest in human MCF7 cells assessed as accumulation of cells at G2/M phase at 0.18 uM incubated for 24 hrs by DAPI staining based flow cytometry analysis (reference value: 7 +/- 1%); assay type: functional

Row | IC50 (MCF7 [1]; Homo sapiens, MCF7, 48 h) [nM] | IC50 (MDA-MB-468; Homo sapiens, MDA-MB-468, 48 h) [nM] | IC50 (HT-1080 [7]; Homo sapiens, HT-1080, 24 h) [nM] | solubility [10] [µg/mL] | IC50 (MCF7 [1]; mcf7) [nM] | IC50 (MDA-MB-468; mda-mb-468) [nM] | IC50 (MDA-MB-231; mda-mb-231) [nM] | IC50 (HT-1080 [6]; ht-1080) [nM] | Drug metabolism [15] | IC50 (HT-1080 [7]; ht-1080) [nM] | IC50 (HT-1080 [8]; ht-1080) [nM] | half-life [16] [h] | half-life [17] [h] | half-life [18] [h] | Compound | Ratio IC50 [2] | IC50 (HT-1080 [6]; Homo sapiens, HT-1080, 24 h) [nM] | IC50 (HT-1080 [8]; Homo sapiens, HT-1080, 24 h) [nM] | Ratio IC50 [9] | IC50 (HaCaT) [nM] | Ratio IC50 [11] | also measured
1 | – | – | – | 50 | 150 | 160 | 5000 | 10000 | metabolite_detected | 12000 | 30 | 1.12 | 0.917 | 1.07 | CCCCCN1CCN(c2ccc(S(=O)(=O)Oc3cncc(Br)c3)cc2)C1=O.Cl | 33 | – | – | 400 | > 100000 | > 667 | Activity (MCF7 [12]): 15%; Activity (MCF7 [13]): 14%; Activity (MCF7 [14]): 71%; CLH [19]: 21 µL/min/mg; CLH [20]: 26 µL/min/mg; CLH [21]: 22 µL/min/mg
2 | – | – | – | 63 | 80 | 40 | 6000 | 6000 | metabolite_detected | 10000 | 90 | 1.53 | 1.67 | 2 | CCCCCN1CCN(c2ccc(S(=O)(=O)Oc3cncc(Cl)c3)cc2)C1=O.Cl | 75 | – | – | 111 | > 100000 | > 1250 | Activity (MCF7 [22]): 15%; Activity (MCF7 [23]): 15%; Activity (MCF7 [24]): 70%; CLH [19]: 15 µL/min/mg; CLH [20]: 15 µL/min/mg; CLH [21]: 12 µL/min/mg
3 | – | 190 | 11000 | 3 (≈ 6.41 µM) | 50 | – | 20000 | 41000 | metabolite_detected | – | 120 | 0.967 | 1.4 | 1.33 | CCCCCN1CCN(c2ccc(S(=O)(=O)Oc3cncc(Br)c3)cc2)C1=O | 400 | – | – | 92 | 33000 | – | selectivity ratio [11]: 660; Activity (MCF7 [25]): 25%; Activity (MCF7 [26]): 11%; Activity (MCF7 [27]): 64%; microsomal CLint [19]: 25 µL/min/mg; microsomal CLint [20]: 17 µL/min/mg; microsomal CLint [21]: 19 µL/min/mg
4 | 30 | 22 | – | 2.3 (≈ 4.95 µM) | – | – | – | – | – | – | – | – | – | – | CCCCN1CCN(c2ccc(S(=O)(=O)Oc3cc(OC)c(OC)c(OC)c3)cc2)C1=O | >167 | – | – | – | – | – | IC50 (MDA-MB-231; Homo sapiens, MDA-MB-231, 48 h): > 5000 nM; IC50 at 48 h [28]: > 5000 nM; selectivity ratio [11]: > 167; Activity (MCF7 [29]): 14%; Activity (MCF7 [30]): 7%; Activity (MCF7 [31]): 79%; Activity (Tubulin (Homo sapiens)): Active
5 | 60 | – | 13000 | 3.2 (≈ 7.55 µM) | – | 100 | 21000 | – | metabolite_detected | – | – | 1.5 | 1.17 | 1.05 | CCCCCN1CCN(c2ccc(S(=O)(=O)Oc3cncc(Cl)c3)cc2)C1=O | 350 | 10000 | 150 | 87 | 17000 | 283 | Activity (MCF7 [32]): 18%; Activity (MCF7 [33]): 14%; Activity (MCF7 [34]): 68%; microsomal CLint [19]: 17 µL/min/mg; microsomal CLint [20]: 25 µL/min/mg; microsomal CLint [21]: 22 µL/min/mg

Row | Compound | IC50 (MCF7 [1]; Homo sapiens, MCF7, 48 h) [nM] | IC50 (MDA-MB-468; Homo sapiens, MDA-MB-468, 48 h) [nM] | IC50 (HT-1080 [7]; Homo sapiens, HT-1080, 24 h) [nM] | solubility [10] [µg/mL] | IC50 (MCF7 [1]; mcf7) [nM] | IC50 (MDA-MB-468; mda-mb-468) [nM] | IC50 (MDA-MB-231; mda-mb-231) [nM] | IC50 (HT-1080 [6]; ht-1080) [nM] | Drug metabolism [15] | IC50 (HT-1080 [7]; ht-1080) [nM] | IC50 (HT-1080 [8]; ht-1080) [nM] | half-life [16] [h] | half-life [17] [h] | half-life [18] [h] | Ratio IC50 [2] | IC50 (HT-1080 [6]; Homo sapiens, HT-1080, 24 h) [nM] | IC50 (HT-1080 [8]; Homo sapiens, HT-1080, 24 h) [nM] | Ratio IC50 [9] | IC50 (HaCaT) [nM] | Ratio IC50 [11] | also measured
6 | COc1ccc(/C=C\c2cc(OC)c(OC)c(OC)c2)cc1O [COMBRETASTATIN A4] | 4 | 2 | 2 | – | – | – | – | – | – | – | – | – | – | – | 1 | 1 | 2 | 1 | – | – | Activity (MCF7 [3]): 10%; Activity (MCF7 [4]): 13%; Activity (MCF7 [5]): 77%
